System: bovine corneas
Experiment: BCOP (Bovine Corneal Opacity and Permeability) assay of ocular irritancy
Protocol: A BCOP (Bovine Corneal Opacity and Permeability) assay was carried out on polyhydantoin quat compounds of the invention using a test system developed by Gautheron et al.L, "Bovine Corneal Opacity and Permeability Test: An in Vitro Assay of Ocular Irritancy" Fundamental and Applied Toxicology, 18: 442-449 (1992). The system measures two important properties which are predictive of irritation: corneal opacity and permeability. The following classification system for in vitro scores was used:
from 25.1 to 55=moderate irritant
from 55.1 and above=severe irritant
Two polyhydantoin quaternary compounds, having formulas IV and V, were tested using known antimicrobial compositions, ethanol and a didecyl dimethyl ammonium chloride (Bardac 2250, Lonza Inc., Fair Lawn, N.J.), as controls. The test samples were prepared as 0.1% active solutions in distilled water.
In this test, bovine corneas (from slaughterhouse animals) were mounted between two tissue culture media reservoirs in holders which function both as treatment chambers and as cuvettes for subsequent direct measurement of corneal opacity. […]
After completion of the incubation period, the resultant damage was assessed both by quantitative measurement of opacity change, and by indirect measurement of corneal cell damage as evidenced by increased passage of fluorescein.

CCO [Ethanol, ethanol]
BCOP SCORE: 68.7

— US5785963A, “Polymeric hydantoin quaternary compounds, methods of making” (Lonza, Inc., priority 1996, dated 1998)
